# Measured values as given in publication PMC12455637, “Functionalizing Nisin with a Sugar Moiety Improves Its Solubility and Results in an Altered Antibacterial Spectrum and Mode of Action” (ACS Synthetic Biology, 2025).
# Square brackets hold non-standard residues; d marks the D form. Primed or numbered codes have the meaning given here. Side chains are listed from the residue outwards. Ends that are not written are not given here. triazole = not defined here; Hpg′ = not defined here
# Legend:
# E. faecium [1] = test: Time-kill assay; type: cell-based, Enterococcus faecium; conditions: 5-fold MIC against E. faecium
# Protocol: The antimicrobial effectiveness of nisin, nisin(1–22), and nisin(M21V)–Gal was assessed using a method previously described by Guo et al. , In summary, an overnight culture of E. faecium was diluted 50 times in GM17 medium and cultured at 37 °C. The bacteria were grown until reaching an optical density at 600 nm (OD600) of 0.5, and then the cell concentration was adjusted to 5 × 10^5 colony-forming units per milliliter (CFU/mL). Following this, the bacteria were exposed to a 5-fold MIC of each peptide. An untreated cell suspension was used as a control. At specific time intervals, 50 μL samples were taken, and both undiluted and 10-fold serially diluted suspensions were plated on GM17 agar. The plates were then incubated overnight at 37 °C, and the resulting colonies were counted and expressed as CFU/mL. Each experiment was conducted in triplicate.
# [2] = system: various Gram-positive bacteria; conditions: ref citation numbers not given; cited from earlier work
# From the text: Recently, we introduced the Met analog Aha at position 17 and used click chemistry to ...
# E. faecium [3] = type: cell-based, Enterococcus faecium; conditions: for decrease in zone of inhibition (activity) on Hpg labeling: 30 μL of 1 mg/mL in 8 mm wells, zone area minus well area, 3 experiments
# Protocol: 2 Production of single-Met containing nisin and nisin variants labeled with Met, Hpg or Hpg–Glc and their antibacterial activity against E. faecium strain. (a) Quantification of fully modified nisin variants labeled with Met or Hpg using HPLC as per Schmitt et al. (b) Evaluation of the antimicrobial efficacy of nisin and its variants against E. faecium through agar well diffusion assay. Each trial was repeated 3 times. The relative activity was determined by measuring inhibition zone diameters in millimeters, calculated as the area of the zone (πr ^2) minus the area of the well (πr ^2) in millimeters.
# An overnight culture was added at a concentration of 0.1% (v/v) to molten GM17 agar (for E. faecium and E. faecalis) or LB agar (for S. aureus and B. cereus) at 45 °C, and then 30 mL of this mixture was poured onto a plate. After the agar solidified, wells of 8 mm were created by punching in the agar and filled with 30 μL of a 1 mg/mL lantibiotic solution. If needed, lantibiotics were activated by adding 3 μL of 1 mg/mL NisP directly to the well. The quantity of nisin was determined using HPLC as previously outlined. The agar plate was then incubated at 37 °C overnight, and the zones of inhibition were measured. The presented data results from three independent experiments. Zone diameters were measured in millimeters and recorded as the area of the zone (πr ^2) minus the area of the well (πr ^2) in millimeters.
# Bacillus cereus CH-85 = test: MIC, broth microdilution; type: cell-based; conditions: inoculum ~5 × 10^5 CFU/mL, overnight 37 °C, HPLC-purified peptides
# Protocol: (§1) The minimal inhibitory concentration (MIC) values were assessed through broth microdilution following standard guidelines. The inoculum was adjusted to around 5 × 10^5 CFU/mL. MIC was characterized as the lowest concentration of the antimicrobial substance at which no visible growth was observed following overnight incubation at 37 °C.
# [4] = system: Listeria monocytogenes LMG10470; test: MIC, broth microdilution; type: cell-based; conditions: inoculum ~5 × 10^5 CFU/mL, overnight 37 °C, HPLC-purified peptides
# Protocol: as §1
# [5] = system: Enterococcus faecium LMG16003 (VRE); type: cell-based; conditions: broth microdilution, inoculum ~5 × 10^5 CFU/mL, overnight 37 °C, HPLC-purified peptides
# Protocol: as §1
# [6] = system: Staphylococcus aureus LMG15975 (MRSA); type: cell-based; conditions: broth microdilution, inoculum ~5 × 10^5 CFU/mL, overnight 37 °C, HPLC-purified peptides
# Protocol: as §1
# [7] = compared to the same peptide labeled with Met
compound,measurement,setting,value
"nisin(1–22): truncated variant of nisin, bacteriostatic control that only binds lipid II (ITSISLCTPGCKTGALMGCNMK; cysteine pairing not given here; also: lantibiotic nisin-A; UniProt P13068 24-45, looked up, fragment) [reference compound]",bacteriostatic or bactericidal nature,E. faecium [1],bacteriostatic effect
"M17W: literature nisin mutant with M17W mutation (ITSISLCTPGCKTGALWGCNMKTATCHCSIHVSK; cysteine pairing not given here; also: lantibiotic nisin-A; UniProt P13068 24-57, looked up, variant M17W) [reference compound]",influence of M17 mutation on antimicrobial activity,[2],reduced activity
"nisin(M21V): single-Met nisin mutant M21V, labeled with Met (ITSISLCTPGCKTGALMGCNVKTATCHCSIHVSK; not fully specified (some residues, bridges); cysteine pairing not given here; also: lantibiotic nisin-A, labeled with Met; UniProt P13068 24-57, looked up, variant M21V)",antibacterial activity in words,"E. faecium [3]; agar well diffusion, 30 μL of 1 mg/mL",highest antibacterial activity
"nisin(M17I)–Glc (ITSISLCTPGCKTGALIGCN[Hpg′]([triazole-2‑deoxy‑D‑glucose])KTATCHCSIHVSK; not fully specified (some residues, bridges); reading uncertain; also: nisin-A lantibiotic thioether rings and dehydro residues, not placed; UniProt P13068 24-57, looked up, variant M17I)",decrease of activity after glucose attachment,"E. faecium [3]; compared to the Hpg-labeled peptide, agar well diffusion",15%
same,decrease of activity of the glucose conjugate,"E. faecium [3]; compared to the same peptide labeled with Met, agar well diffusion",41%
"nisin(M17I): single-Met nisin mutant M17I, labeled with Met (ITSISLCTPGCKTGALIGCNMKTATCHCSIHVSK; not fully specified (some residues, bridges); cysteine pairing not given here; also: lantibiotic nisin-A, labeled with Met; UniProt P13068 24-57, looked up, variant M17I)",influence of M17 mutation on antimicrobial activity,[2],reduced activity
C#CCC[C@@H]1NC(=O)[C@H](CC(C)C)NC(=O)[C@H](C)NC(=O)CNC(=O)[C@H](NC(=O)[C@H](CCCCN)NC(=O)[C@@H]2CS[C@@H](C)[C@@H](NC(=O)[C@@H]3CSC[C@@H](NC(=O)/C(=C/C)NC(=O)[C@@H](N)[C@@H](C)CC)C(=O)N[C@@H]([C@@H](C)CC)C(=O)NC(=C)C(=O)N[C@@H](CC(C)C)C(=O)N3)C(=O)N3CCC[C@H]3C(=O)NCC(=O)N2)[C@H](C)SC[C@@H](C(=O)N[C@@H](CC(N)=O)C(=O)N[C@H](C(=O)N[C@@H](CCCCN)C(=O)N[C@H]2C(=O)N[C@@H](C)C(=O)N[C@H]3C(=O)N[C@@H](CS[C@H]2C)C(=O)N[C@@H](Cc2c[nH]cn2)C(=O)N[C@H](C(=O)N[C@@H](CO)C(=O)N[C@H](C(=O)N[C@@H](Cc2c[nH]cn2)C(=O)N[C@H](C(=O)NC(=C)C(=O)N[C@@H](CCCCN)C(=O)O)C(C)C)[C@@H](C)CC)CS[C@H]3C)C(C)C)NC(=O)CNC1=O [nisin(M21V)(Hpg)],decrease in zone of inhibition (activity) on Hpg labeling,E. faecium [3]; [7],17%
same,MIC,Bacillus cereus CH-85,30.4 µg/mL
same,MIC,[4],30.4 µg/mL
same,MIC,[5],7.6 µg/mL
same,MIC,[6],15.2 µg/mL
C#CCC[C@H](NC(=O)[C@@H]1CS[C@@H](C)[C@@H](NC(=O)[C@@H](NC(=O)[C@@H]2CS[C@@H](C)[C@@H](NC(=O)[C@@H]3CSC[C@@H](NC(=O)/C(=C/C)NC(=O)[C@@H](N)[C@@H](C)CC)C(=O)N[C@@H]([C@@H](C)CC)C(=O)NC(=C)C(=O)N[C@@H](CC(C)C)C(=O)N3)C(=O)N[C@@H](C)C(=O)NCC(=O)N2)[C@@H](C)CC)C(=O)NCC(=O)N[C@@H](C(C)C)C(=O)N[C@@H]([C@@H](C)CC)C(=O)N[C@@H]([C@@H](C)CC)C(=O)N/C(=C\C)C(=O)N1)C(=O)N[C@@H]1CSC[C@@H](C(=O)N[C@@H](CCCCN)C(=O)O)NC(=O)CNC(=O)[C@H](CC(N)=O)NC1=O [rombocin(M17I)(Hpg)],decrease in zone of inhibition (activity) on Hpg labeling,E. faecium [3]; [7],49%
C#CCC[C@H](NC(=O)[C@H](CC(N)=O)NC(=O)[C@@H]1CS[C@@H](C)[C@@H](NC(=O)[C@H](CCCCN)NC(=O)[C@@H]2CS[C@@H](C)[C@@H](NC(=O)[C@@H]3CSC[C@@H](NC(=O)/C(=C/C)NC(=O)[C@@H](N)[C@@H](C)CC)C(=O)N[C@@H]([C@@H](C)CC)C(=O)NC(=C)C(=O)N[C@@H](CC(C)C)C(=O)N3)C(=O)N3CCC[C@H]3C(=O)NCC(=O)N2)C(=O)NCC(=O)N[C@@H](C)C(=O)N[C@@H](CC(C)C)C(=O)N[C@@H]([C@@H](C)CC)C(=O)NCC(=O)N1)C(=O)N[C@@H](CCCCN)C(=O)N[C@H]1C(=O)N[C@@H](C)C(=O)N[C@H]2C(=O)N[C@@H](CS[C@H]1C)C(=O)N[C@@H](Cc1c[nH]cn1)C(=O)N[C@H](C(=O)N[C@@H](CO)C(=O)N[C@H](C(=O)N[C@@H](Cc1c[nH]cn1)C(=O)N[C@H](C(=O)NC(=C)C(=O)N[C@@H](CCCCN)C(=O)O)C(C)C)[C@@H](C)CC)CS[C@H]2C [nisin(M17I)(Hpg)],decrease in zone of inhibition (activity) on Hpg labeling,E. faecium [3]; [7],30%
same,MIC,Bacillus cereus CH-85,121.5 µg/mL
same,MIC,[4],121.5 µg/mL
same,MIC,[5],15.2 µg/mL
same,MIC,[6],30.4 µg/mL
C#CCC[C@@H]1NC(=O)[C@H]([C@@H](C)CC)NC(=O)[C@H](C(C)C)NC(=O)CNC(=O)[C@H](NC(=O)[C@@H](NC(=O)[C@@H]2CS[C@@H](C)[C@@H](NC(=O)[C@@H]3CSC[C@@H](NC(=O)/C(=C/C)NC(=O)[C@@H](N)[C@@H](C)CC)C(=O)N[C@@H]([C@@H](C)CC)C(=O)NC(=C)C(=O)N[C@@H](CC(C)C)C(=O)N3)C(=O)N[C@@H](C)C(=O)NCC(=O)N2)[C@@H](C)CC)[C@H](C)SC[C@@H](C(=O)N[C@H](C(=O)N[C@@H]2CSC[C@@H](C(=O)N[C@@H](CCCCN)C(=O)O)NC(=O)CNC(=O)[C@H](CC(N)=O)NC2=O)C(C)C)NC(=O)/C(=C/C)NC1=O [rombocin(M20V)(Hpg)],decrease in zone of inhibition (activity) on Hpg labeling,E. faecium [3]; [7],13%
